Experimental data: patent US12077503B2, “Substituted cyclic amides and their use as herbicides” (FMC CORPORATION, priority 2015, dated 2024)

How the values were obtained:
Type in all cases: in vivo
[1] = test system: barnyardgrass (Echinochloa crus-galli); test: Test A postemergence; settings: Echinochloa crus-galli, post-emergence, 240 h, Postemergence; for pest or weed control at 125 g/ha: 125 g ai/ha, visual rating about 10 d after treatment, read-out: Barnyardgrass plant response rating (0 to 100 scale, 0 no effect, 100 complete control); for pest or weed control at 31 g/ha: 31 g ai/ha, 0 is no effect, 100 is complete control, read-out: Barnyardgrass plant response rating (0 to 100 scale)
Method in brief: (§1)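 Seeded soil received test chemicals as a preemergence directed spray, and seedlings at one to two leaves, 2–10 cm tall, received them postemergence, in a non-phytotoxic, surfactant-containing solvent mixture. Pots were held in a greenhouse for approximately 10 d, then rated for injury from 0, no effect, to 100, complete control.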

[2] = test system: blackgrass (Alopecurus myosuroides); test: Test A postemergence; settings: Alopecurus myosuroides, post-emergence, 240 h, Postemergence, read-out: Blackgrass plant response rating (0 to 100 scale); for pest or weed control at 125 g/ha: 125 g ai/ha, visual rating about 10 d after treatment; for pest or weed control at 31 g/ha: 31 g ai/ha, 0 is no effect, 100 is complete control
Method in brief: as §1

[3] = test system: ragweed (common ragweed, Ambrosia elatior); test: Test A postemergence; settings: Ambrosia artemisiifolia, post-emergence, 240 h, Postemergence, read-out: Ragweed plant response rating (0 to 100 scale); for pest or weed control at 125 g/ha: 125 g ai/ha, visual rating about 10 d after treatment; for pest or weed control at 31 g/ha: 31 g ai/ha, 0 is no effect, 100 is complete control
Method in brief: as §1

[4] = test system: wheat (Triticum aestivum); test: Test A postemergence; settings: Triticum aestivum, post-emergence, 240 h, Postemergence, read-out: Wheat plant response rating (0 to 100 scale); for plant injury at 125 g/ha: 125 g ai/ha, visual rating about 10 d after treatment; for plant injury at 31 g/ha: 31 g ai/ha, 0 is no effect, 100 is complete control
Method in brief: as §1

[5] = test system: ryegrass, Italian (Italian ryegrass, Lolium multiflorum); test: Test A postemergence; settings: Lolium multiflorum, post-emergence, 240 h, Postemergence, read-out: Ryegrass, Italian plant response rating (0 to 100 scale); for pest or weed control at 125 g/ha: 125 g ai/ha, visual rating about 10 d after treatment; for pest or weed control at 31 g/ha: 31 g ai/ha, 0 is no effect, 100 is complete control
Method in brief: as §1

[6] = test system: Galium (catchweed bedstraw, Galium aparine); test: Test A postemergence; settings: Galium, post-emergence, 240 h, Postemergence, read-out: Galium plant response rating (0 to 100 scale); for pest or weed control at 125 g/ha: 125 g ai/ha, visual rating about 10 d after treatment; for pest or weed control at 31 g/ha: 31 g ai/ha, 0 is no effect, 100 is complete control
Method in brief: as §1

[7] = test system: giant foxtail (Setaria faberii); test: Test A postemergence; settings: Setaria faberi, post-emergence, 240 h, Postemergence, read-out: Foxtail, Giant plant response rating (0 to 100 scale); for pest or weed control at 125 g/ha: 125 g ai/ha, visual rating about 10 d after treatment; for pest or weed control at 31 g/ha: 31 g ai/ha, 0 is no effect, 100 is complete control
Method in brief: as §1

[8] = test system: pigweed (Amaranthus retroflexus); test: Test A postemergence; settings: Amaranthus retroflexus, post-emergence, 240 h, Postemergence, read-out: Pigweed plant response rating (0 to 100 scale); for pest or weed control at 125 g/ha: 125 g ai/ha, visual rating about 10 d after treatment; for pest or weed control at 31 g/ha: 31 g ai/ha, 0 is no effect, 100 is complete control
Method in brief: as §1

corn (Zea mays) = test: Test A postemergence; settings: Zea mays, post-emergence, 240 h, Postemergence, read-out: Corn plant response rating (0 to 100 scale); for plant injury at 125 g/ha: 125 g ai/ha, visual rating about 10 d after treatment; for plant injury at 31 g/ha: 31 g ai/ha, 0 is no effect, 100 is complete control
Method in brief: as §1

Kochia (Kochia scoparia) [9] = test: Test A postemergence; settings: Bassia scoparia, post-emergence, 240 h, Postemergence, read-out: Kochia plant response rating (0 to 100 scale); for pest or weed control at 125 g/ha: 125 g ai/ha, visual rating about 10 d after treatment; for pest or weed control at 31 g/ha: 31 g ai/ha, 0 is no effect, 100 is complete control
Method in brief: as §1

[10] = test system: barnyardgrass (Echinochloa crus-galli); test: Test A preemergence; settings: Echinochloa crus-galli, pre-emergence, 240 h, 0 to 100 scale where 0 is no effect and 100 is complete control, read-out: Barnyardgrass plant response rating; for pest or weed control at 31 g/ha: 31 g ai/ha, Preemergence; for pest or weed control at 125 g/ha: 125 g ai/ha, preemergence, visual injury rating, approximately 10 d
Method in brief: as §1

[11] = test system: ragweed (common ragweed, Ambrosia elatior); test: Test A preemergence; settings: Ambrosia artemisiifolia, pre-emergence, 240 h, 0 to 100 scale where 0 is no effect and 100 is complete control, read-out: Ragweed plant response rating; for pest or weed control at 31 g/ha: 31 g ai/ha, Preemergence; for pest or weed control at 125 g/ha: 125 g ai/ha, preemergence, visual injury rating, approximately 10 d
Method in brief: as §1

[12] = test system: ryegrass, Italian (Italian ryegrass, Lolium multiflorum); test: Test A preemergence; settings: Lolium multiflorum, pre-emergence, 240 h, 0 to 100 scale where 0 is no effect and 100 is complete control, read-out: Ryegrass, Italian plant response rating; for pest or weed control at 31 g/ha: 31 g ai/ha, Preemergence; for pest or weed control at 125 g/ha: 125 g ai/ha, preemergence, visual injury rating, approximately 10 d
Method in brief: as §1

[13] = test system: giant foxtail (Setaria faberii); test: Test A preemergence; settings: Setaria faberi, pre-emergence, 240 h, 0 to 100 scale where 0 is no effect and 100 is complete control, read-out: Foxtail, Giant plant response rating; for pest or weed control at 31 g/ha: 31 g ai/ha, Preemergence; for pest or weed control at 125 g/ha: 125 g ai/ha, preemergence, visual injury rating, approximately 10 d
Method in brief: as §1

[14] = test system: pigweed (Amaranthus retroflexus); test: Test A preemergence; settings: Amaranthus retroflexus, pre-emergence, 240 h, 0 to 100 scale where 0 is no effect and 100 is complete control, read-out: Pigweed plant response rating; for pest or weed control at 31 g/ha: 31 g ai/ha, Preemergence; for pest or weed control at 125 g/ha: 125 g ai/ha, preemergence, visual injury rating, approximately 10 d
Kochia (Kochia scoparia) [15] = test: Test A preemergence; settings: Bassia scoparia, pre-emergence, 240 h, 0 to 100 scale where 0 is no effect and 100 is complete control, read-out: Kochia plant response rating; for pest or weed control at 31 g/ha: 31 g ai/ha, Preemergence; for pest or weed control at 125 g/ha: 125 g ai/ha, preemergence, visual injury rating, approximately 10 d
Method in brief: as §1

rice (Oryra sativa) = test: Test B flooded paddy test; settings: Oryza sativa, 250 g ai/ha, Flood; 0 to 100 scale where 0 is no effect and 100 is complete control; read-out: Rice plant response rating
Method in brief: (§2)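 Greenhouse paddy pots with 2-leaf stage plants received compound by direct addition to floodwater 3 cm deep, kept at that level. Scored visually at 13–15 d versus controls (0 no effect; 100 complete control).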

[16] = test system: barnyardgrass (Echinochloa crus-galli); test: Test B flooded paddy test; settings: Echinochloa crus-galli, 250 g ai/ha, Flood; 0 to 100 scale where 0 is no effect and 100 is complete control; read-out: Barnyardgrass plant response rating
Method in brief: as §2

[17] = test system: sedge, umbrella (small-flower umbrella sedge, Cyperus difformis); test: Test B flooded paddy test; settings: Cyperus difformis, 250 g ai/ha, Flood; 0 to 100 scale where 0 is no effect and 100 is complete control; read-out: Sedge, Umbrella plant response rating
Method in brief: as §2

[18] = test system: ducksalad (Heteranthera limosa); test: Test B flooded paddy test; settings: Heteranthera limosa, 250 g ai/ha, Flood; 0 to 100 scale where 0 is no effect and 100 is complete control; read-out: Ducksalad plant response rating
Method in brief: as §2

Row | SMILES | pest or weed control at 125 g/ha [1] [%] | pest or weed control at 31 g/ha [1] [%] | pest or weed control at 125 g/ha [2] [%] | pest or weed control at 31 g/ha [2] [%] | pest or weed control at 125 g/ha [3] [%] | pest or weed control at 31 g/ha [3] [%] | plant injury at 125 g/ha [4] [%] | plant injury at 31 g/ha [4] [%] | pest or weed control at 125 g/ha [5] [%] | pest or weed control at 31 g/ha [5] [%] | pest or weed control at 125 g/ha [6] [%] | pest or weed control at 31 g/ha [6] [%] | pest or weed control at 125 g/ha [7] [%] | pest or weed control at 31 g/ha [7] [%] | pest or weed control at 125 g/ha [8] [%] | pest or weed control at 31 g/ha [8] [%] | plant injury at 125 g/ha (corn (Zea mays)) [%] | plant injury at 31 g/ha (corn (Zea mays)) [%] | pest or weed control at 125 g/ha (Kochia (Kochia scoparia) [9]) [%] | pest or weed control at 31 g/ha (Kochia (Kochia scoparia) [9]) [%] | other results
1 | CN1C[C@H](c2ccccc2)[C@@H](C(=O)Nc2cccc(F)c2F)C1=O [Compound 1282] | 100 | 90 | 0 | 0 | 40 | 0 | 50 | 0 | 40 | 0 | 70 | 40 | 80 | 80 | 20 | 0 | 30 | 0 | 60 | 0 | pest or weed control at 31 g/ha [10]: 100%; pest or weed control at 125 g/ha [10]: 100%; pest or weed control at 31 g/ha [11]: 0%; pest or weed control at 125 g/ha [11]: 90%; pest or weed control at 31 g/ha [12]: 30%; pest or weed control at 125 g/ha [12]: 70%; pest or weed control at 31 g/ha [13]: 100%; pest or weed control at 125 g/ha [13]: 100%; pest or weed control at 31 g/ha [14]: 60%; pest or weed control at 125 g/ha [14]: 80%; pest or weed control at 31 g/ha (Kochia (Kochia scoparia) [15]): 30%; pest or weed control at 125 g/ha (Kochia (Kochia scoparia) [15]): 70%; pest or weed control at 250 g/ha (rice (Oryra sativa)): 30%; pest or weed control at 250 g/ha [16]: 90%; pest or weed control at 250 g/ha [17]: 0%; pest or weed control at 250 g/ha [18]: 100%
2 | CN1C[C@H](c2cccc(C(F)(F)F)c2)[C@@H](C(=O)Nc2ccccc2-n2cccn2)C1=O [Compound 1284] | 0 | 0 | 0 | 0 | 0 | 0 | 0 | 0 | 0 | 0 | 0 | 0 | 0 | 0 | 0 | 0 | 0 | 0 | 0 | 0 | pest or weed control at 31 g/ha [10]: 0%; pest or weed control at 125 g/ha [10]: 0%; pest or weed control at 31 g/ha [11]: 0%; pest or weed control at 125 g/ha [11]: 0%; pest or weed control at 31 g/ha [12]: 0%; pest or weed control at 125 g/ha [12]: 0%; pest or weed control at 31 g/ha [13]: 0%; pest or weed control at 125 g/ha [13]: 0%; pest or weed control at 31 g/ha [14]: 0%; pest or weed control at 125 g/ha [14]: 0%; pest or weed control at 31 g/ha (Kochia (Kochia scoparia) [15]): 0%; pest or weed control at 125 g/ha (Kochia (Kochia scoparia) [15]): 0%; pest or weed control at 250 g/ha (rice (Oryra sativa)): 0%; pest or weed control at 250 g/ha [16]: 0%; pest or weed control at 250 g/ha [17]: 0%; pest or weed control at 250 g/ha [18]: 0%
